In brackets after ≈: the same amount, converted by molar mass. Blank lines part the entries; values can stand above or below the compound they belong to.
Columns and labels:
[1] = target: T1, recombinant human FLT3 (571–993) (Homo sapiens, UniProt P36888); assay: biochemical; format: biochemical; settings: for IC50: FLT3 IC50, FLT3^WT enzyme, 500 μM ATP
T1 sequence (P36888 571-993): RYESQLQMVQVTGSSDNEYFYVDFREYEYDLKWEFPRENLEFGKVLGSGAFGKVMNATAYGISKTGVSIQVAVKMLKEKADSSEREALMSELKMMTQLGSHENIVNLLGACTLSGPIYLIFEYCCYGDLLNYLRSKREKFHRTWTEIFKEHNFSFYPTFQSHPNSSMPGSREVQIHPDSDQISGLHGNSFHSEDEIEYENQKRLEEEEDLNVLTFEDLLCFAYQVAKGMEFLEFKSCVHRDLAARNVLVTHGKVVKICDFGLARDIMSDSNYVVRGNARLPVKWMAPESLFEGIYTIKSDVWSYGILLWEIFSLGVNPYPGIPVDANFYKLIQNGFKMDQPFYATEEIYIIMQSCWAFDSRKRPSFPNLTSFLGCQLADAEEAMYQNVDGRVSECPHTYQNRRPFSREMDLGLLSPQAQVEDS

MV4-11 cells = assay: MV4-11 cell proliferation; format: cell-based; settings: for EC50: Homo sapiens, MV4-11, 72 h, read-out: MV4-11 EC50
BJ cells = assay: BJ fibroblast proliferation; format: cell-based; settings: Homo sapiens, 72 h, read-out: BJ EC50, 72 h
[2] = Liver microsomal stability; settings: female, CD-1, mouse, liver microsomes, pH 7.4
Solubility = format: physicochemical; settings: buffer, pH 7.4, aqueous buffer, kinetic from dmso stock
Plasma stability [3] = format: in vitro ADME; settings: rat
[4] = Liver microsomal stability; settings: dog, liver microsomes, pH 7.4
FLT3-ITD phosphorylation = assay: Western blot of FLT3 signaling in MOLM13^FLT3-ITD cells; format: cell-based; settings: 1 h, read-out: FLT3 IC50 estimated from loss of FLT3-ITD phosphorylation
[5] = Liver microsomal stability; settings: both, human, liver microsomes, pH 7.4
[6] = Liver microsomal stability; settings: rat, liver microsomes, pH 7.4
Plasma stability [7] = format: in vitro ADME; settings: human
[8] = tested on: MOLM13^FLT3-ITD/D835Y cells; assay: MOLM13 cell viability; format: cell-based; settings: Homo sapiens, MOLM-13, 72 h, read-out: MOLM13^FLT3-ITD/D835Y IC50
Plasma stability [9] = format: in vitro ADME; settings: mouse
MOLM13^FLT3-ITD cells = assay: MOLM13 cell viability; format: cell-based; settings: Homo sapiens, MOLM-13, 72 h, read-out: MOLM13^FLT3-ITD IC50

Structure (SMILES): CN(c1ccnc(Nc2cccc(-c3cccnc3)c2)n1)C1CCCCC1 [Compound 16, N^4-Cyclohexyl-N^4-methyl-N^2-(3-(pyridin-3-yl)phenyl)pyrimidine-2,4-diamine]
IC50 [1]: 0.082 µM
EC50 (MV4-11 cells): > 8 µM

Structure (SMILES): c1cncc(-c2cccc(Nc3nccc(OC4CCCCC4)n3)c2)c1 [Compound 19, 4-(Cyclohexyloxy)-N-(3-(pyridin-3-yl)phenyl)pyrimidin-2-amine]
IC50 [1]: 0.187 µM
EC50 (MV4-11 cells): > 6 µM

Structure (SMILES): c1cncc(-c2cccc(Nc3cc(NC4CCCCC4)ccn3)c2)c1 [Compound 13, N^4-cyclohexyl-N^2-(3-(pyridin-3-yl)phenyl)pyridine-2,4-diamine]
IC50 [1]: 1.5 µM
EC50 (MV4-11 cells): > 16 µM
EC50 (BJ cells): 10.6 µM

Structure (SMILES): CC[C@@H](C)Nc1ccnc(Nc2cccc(-c3cccnc3)c2)n1 [Compound 5k, (R)-N^4-(sec-Butyl)-N^2-(3-(pyridin-3-yl)phenyl)pyrimidine-2,4-diamine]
fold improvement in MV4-11 growth inhibition relative to 1 (MV4-11 cells): approximately 10 fold

Structure (SMILES): c1cncc(-c2cccc(Oc3nccc(OC4CCCCC4)n3)c2)c1 [Compound 20, 4-(Cyclohexyloxy)-2-(3-(pyridin-3-yl)phenoxy)pyrimidine]
IC50 [1]: 0.049 µM
EC50 (MV4-11 cells): > 13 µM

Structure (SMILES): c1cncc(-c2cccc(Oc3nccc(NC4CCCCC4)n3)c2)c1 [Compound 22, N-Cyclohexyl-2-(3-(pyridin-3-yl)phenoxy)pyrimidin-4-amine]
fold reduction of FLT3 enzymatic activity compared to 1 [1]: ~40 fold
IC50 [1]: 1.26 µM
EC50 (MV4-11 cells): > 14 µM

Structure (SMILES): c1cncc(-c2cccc(Nc3cccc(NC4CCCCC4)n3)c2)c1 [Compound 9, N^2-Cyclohexyl-N^6-(3-(pyridin-3-yl)phenyl)pyridine-2,6-diamine]
IC50 [1]: 0.08 µM
EC50 (MV4-11 cells): > 10 µM
EC50 (BJ cells): > 10 µM

Structure (SMILES): c1cncc(-c2cccc(Nc3ccnc(NC4CCCCC4)c3)c2)c1 [Compound 14, N^2-Cyclohexyl-N^4-(3-(pyridin-3-yl)phenyl)pyridine-2,4-diamine]
IC50 [1]: 0.141 µM
EC50 (MV4-11 cells): > 8 µM
EC50 (BJ cells): 8.74 µM

Structure (SMILES): CC(C)(C)c1cc(NC(=O)Nc2ccc(-c3cn4c(n3)sc3cc(OCCN5CCOCC5)ccc34)cc2)no1 [quizartinib, reference compound]
EC50 (MV4-11 cells): 0.0007 µM
EC50 (BJ cells): > 22 µM

Structure (SMILES): CN(c1cccc(-c2cccnc2)c1)c1nccc(N(C)C2CCCCC2)n1 [Compound 17, N^4-Cyclohexyl-N^2,N^4-dimethyl-N^2-(3-(pyridin-3-yl)phenyl)pyrimidine-2,4-diamine]
IC50 [1]: > 15 µM
EC50 (MV4-11 cells): 0.039 µM

Structure (SMILES): CC[C@H](C)Nc1ccnc(Nc2cccc(-c3cccnc3)c2)n1 [Compound 5j, (S)-N^4-(sec-Butyl)-N^2-(3-(pyridin-3-yl)phenyl)pyrimidine-2,4-diamine]
fold improvement in MV4-11 growth inhibition relative to 1 (MV4-11 cells): approximately 10 fold

Structure (SMILES): CN(c1cccc(-c2cccnc2)c1)c1nccc(NC2CCCCC2)n1 [Compound 21, N^4-Cyclohexyl-N^2-methyl-N^2-(3-(pyridin-3-yl)phenyl)pyrimidine-2,4-diamine]
IC50 [1]: > 11 µM
EC50 (MV4-11 cells): > 4 µM

Structure (SMILES): CC(C)(C)Nc1ccnc(Nc2cccc(-c3cccnc3)c2)n1 [Compound 5f, N^4-(tert-Butyl)-N^2-(3-(pyridin-3-yl)phenyl)pyrimidine-2,4-diamine]
fold improvement in MV4-11 growth inhibition relative to 1 (MV4-11 cells): approximately 10 fold

Next, values leading:

CLint scaled at 4 µM [2]: 29.1 L/h/kg
half-life at 4 µM [2]: 7.08 ± 0.18 min
solubility at 18 h (Solubility): 56.9 ± 1.9 µM (≈ 17.4 µg/mL)
plasma stability (Plasma stability [3]): >50 h
CLint scaled at 4 µM [4]: 2.22 L/h/kg
half-life at 4 µM [4]: 54 ± 1.2 min
IC50 (FLT3-ITD phosphorylation): 0.05 to 0.1 µM
CLint scaled at 4 µM [5]: 0.853 L/h/kg
half-life at 4 µM [5]: 87.6 ± 6 min
CLint scaled at 4 µM [6]: 7.32 L/h/kg
half-life at 4 µM [6]: 22.8 ± 0.6 min
plasma stability (Plasma stability [7]): >50 h
IC50 [8]: 0.077 µM
plasma stability (Plasma stability [9]): >50 h
IC50 (MOLM13^FLT3-ITD cells): 0.045 µM
Structure (SMILES): CC(C)Nc1ccnc(Nc2cccc(-c3cnccn3)c2)n1 [Compound 6k, N^4-Isopropyl-N^2-(3-(pyrazin-2-yl)phenyl)pyrimidine-2,4-diamine]

fold more potent than 1 against FLT3 [1]: approximately 4 fold
Structure (SMILES): c1cncc(-c2cccc(Nc3nccc(NC4CCNCC4)n3)c2)c1 [Compound 5q, N^4-(Piperidin-4-yl)-N^2-(3-(pyridin-3-yl)phenyl)pyrimidine-2,4-diamine]
